Measured values as given in ChEMBL document CHEMBL1135808, “A new type of mixed anhydride and its applications to the synthesis of 7-substituted 8-chloro-5,5-dioxoimidazo[1,2-b][1,4,2]benzodithiazines with in vitro antitumor activity” (2002).

What was measured:
Format in all cases: functional
Conditions in all cases: Homo sapiens, read-out: Log LC50 (the source's name) (converted)
K562 = assay: Log of molar concentration leading to 50% cell death against leukemia K-562 cell line was reported
HOP-92 = assay: Log of molar concentration leading to 50% cell death against non-small-cell lung cancer HOP-92 cell line was reported
HT-29 = assay: Log of molar concentration leading to 50% cell death against colon cancer HT-29 cell line was reported

SMILES | CC50 (K562) [µM] | CC50 (HOP-92) [µM] | CC50 (HT-29) [µM]
O=C(Nc1nccs1)c1cc2c(cc1Cl)Sc1nccn1S2(=O)=O | 87.1 | – | –
O=C(Nc1cccc2nsnc12)c1cc2c(cc1Cl)Sc1nccn1S2(=O)=O | – | 95.5 | 28.8
